Assay results reported in patent US7132547B2, “Preventives/remedies for urinary disturbance” (priority 2001, dated 2006).
Counter-ions that a name gives are not always drawn.

Legend:
[1] = biological target: T1, human erythrocyte-derived acetylcholinesterase (Homo sapiens, UniProt P22303); experiment: Measurement of acetylcholinesterase inhibitory activity (acetylthiocholine / Ellman method); type: biochemical; conditions: 50% inhibition concentration, repeated at least three times, read-out: AchE: IC50
T1 construct: Human erythrocyte-drived acetylcholinesterase (Sigma) was dissolved in distilled water; purchased Sigma; host or cells: human erythrocytes (natural source)
Protocol: a) Measurement of Acetylcholinesterase Inhibitory Activity
Acetylcholinesterase inhibitory activity of Example compounds was measured using human erythrocyte-derived acetylcholinesterase by an acetylthiocholine method (Ellman method).
Human erythrocyte-drived acetylcholinesterase (Sigma) was dissolved in distilled water to the concentration of 0.2 IU/mL to obtain an enzyme specimen. 20 μL of a drug solution, 30 μL of 80 mM Tris-HCL (pH 7.4), 50 μL of an enzyme specimen and 50 μL of 5 mM 5,5-dithio-bis (2-nitrobenzoic acid)(Sigma) were dispensed on a 96-well microplate, and this was shaken for 10 seconds. 50 μL of 4 mM acetylthiocholine iodide (Sigma) was added, this was shaken again and, immediately after, increase in absorbance at 414 nm was measured at 30 second intervals for 10 minutes. Enzyme activity was measured by the following equation: R=5.74×10^−7×ΔA (wherein R represents enzyme activity (mol), and ΔA represents increase in absorbance at 414 nm)
Regarding each compound, the experiment was repeated at least three times to obtain 50% inhibition concentration (IC50). According to the similar method to the above-mentioned, acetylcholinesterase inhibitory activity of distigmine which is a known acetylcholinesterase inhibitor was measured.

[2] = biological target: T2, human adrenaline α1A receptor (Homo sapiens, UniProt P35348); experiment: Measurement of α1A receptor binding inhibitory activity ([3H]-Prazosin binding to CHO-K1 membrane fraction); conditions: concentration reducing [3H]-Prazosin (2.5 nM) binding to the membrane fraction to 50%
T2 construct: expressed in transfected cells; membrane fraction
T2 sequence (P35348 1-466): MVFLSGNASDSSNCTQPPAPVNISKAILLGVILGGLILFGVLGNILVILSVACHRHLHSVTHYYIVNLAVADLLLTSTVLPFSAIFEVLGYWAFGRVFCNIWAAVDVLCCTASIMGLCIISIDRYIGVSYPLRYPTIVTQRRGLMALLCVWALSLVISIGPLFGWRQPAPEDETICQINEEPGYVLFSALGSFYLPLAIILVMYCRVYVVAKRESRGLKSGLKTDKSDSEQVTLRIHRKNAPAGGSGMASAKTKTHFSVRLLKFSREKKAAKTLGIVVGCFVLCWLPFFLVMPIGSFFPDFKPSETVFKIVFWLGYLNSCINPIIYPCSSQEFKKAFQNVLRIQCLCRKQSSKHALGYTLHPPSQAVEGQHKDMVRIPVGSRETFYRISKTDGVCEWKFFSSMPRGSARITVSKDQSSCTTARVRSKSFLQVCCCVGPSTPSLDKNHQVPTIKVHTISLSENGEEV
Protocol: b) Measurement of α1A Receptor Binding Inhibitory Activity
The following gene manipulation method was carried out according to the method described in a textbook (Miniatis et al., Molecular Cloning, Cold Spring Harbor Laboratory, 1989) or the method described in protocol attached to a reagent.
(i) Preparation of Expression Plasmid for Human Adrenaline α1A Receptor
An adrenaline α1A receptor gene was cloned from a human liver cDNA by a PCR method. A PCR reaction was performed with Gene Amp PCR System 9700 (Applied Biosystems) using 200 ng of a human liver cDNA library (TAKARA SHUZO Co., Ltd.) as a template and using TaKaRa Pyrobest DNA Polymerase (TAKARA SHUZO CO., Ltd) and adding each 50 pmol of a primer set 5′-[…]-3′ [SEQ ID No.: 1] and 5′-[…]-3[SEQ ID No.: 2] prepared making reference to a nucleotide sequence of an adrenaline α1A receptor gene which was reported by Hirasawa A. et al. (Biochem. Biophys. Res. Commun., 195, 902–909(1993)) (reaction condition: 45 cycles of 15 seconds at 94° C., and 3 minutes 30 seconds at 68° C.).
The obtained PCR fragment was digested with restriction enzymes Eco RI (TAKARA SHUZO Co. Ltd.) and Sal I. (TAKARA SHUZO Co. Ltd.), and agarose gel electrophoresis was performed to recover DNA fragments. The DNA fragments were mixed with an animal cell expression plasmid pMSR αneo (Administration No. A99–0013) which had been digested with Eco RI and Sal I, ligated with DNA Ligation Kit Ver. 2 (TAKARA SHUZO Co. Ltd.), and a competent cell of Esherichia coli JM109 was transformed to obtain a plasmid pMSR αneoA dreα1A.
(ii) Introduction of Plasmid for Expression of Human Adrenaline α1A Receptor into CHO-K1 Cell and Preparation of Membrane Fraction
CHO-K1 cells which had been subcultured in a 150 cm^2 culturing flask (Corning Coaster) using Ham F12 medium (Invitrogen) containing 10% fetal bovine serum (TRACE SCIENTIFIC) was peeled with 0.5 g/L trypsin-0.2 g/L EDTA(Invitrogen), cells were washed with D-PBS(−) (Invitrogen), centrifuged (1000 rpm, 5 min.), and suspended in D-PBS(−). […]

[3] = tested on: Hartley male guinea pigs loaded with phenylephrine; experiment: Pressure Flow Study using guinea pigs loaded with phenylephrine; type: in vivo, guinea pig; conditions: i.v., tamsulosin 0.01 mg/kg, Example 20 0.1 mg/kg, urethane-anesthetized, phenylephrine 3 μg/animal/min
Protocol: Hartley male guinea pigs (Slc) weighing 300 to 350 g was anesthetized with urethane (1.2 g/kg, i.p.), and a median was incised to expose bladder. Two polyethylene tubes were inserted into bladder, and one of them was used for injecting a physiological saline and the other was used for measuring a bladder internal pressure. A cannulae was inserted into a left femoral vein, and phenylephrine was continuously administered intravenously at 3 μg/animal/min until the completion of experiment. A physiological saline was injected into bladder at a rate of 0.3 mL/min, and injection was stopped when urination was confirmed. The urinated urine weight was measured with an electron balance (HX-400, A & D) at real time. Analogue data of bladder internal pressure and urine weight were inputted into an AD transducer (MP-100, BIOPAC Systems), and digital signals were analyzed with exclusive analyzing software (AcqKnowledge 3.5.3, BIOPAC Systems). The sampling rate of data was 10 Hz, and data of urination amount and urine flow rate were subjected to a lowcut filter at 0.5 Hz in order to remove noises. The value of urine weight was differentiated to calculate urine flow rate (Q), and maximum urine flow rate (Qmax) at urination and bladder internal pressure (Pves (Qmax)) at maximum urine flow were calculated. The urination weight 1 g was converted into 1 mL to calculate the urination amount, and divided by bladder volume to obtain voiding efficiency (Voiding Efficiency). Example compound was dissolved in DMSO, and the solution was intravenously administered at 0.5 mL/kg. 10 minutes after administration of test compound, urinary reflection was recorded again, and change in urine flow rate (ΔQmax), and change in bladder internal pressure (ΔPves(Qmax)) and voiding efficiency were assessed. The change in urine flow rate (ΔQmax) and change in bladder internal pressure (ΔPves. (Qmax)) were an amount of change (Δ value) obtained by subtracting each value before administration of test compound from each value after administration, and voiding efficiency was assessed by a relative value (% of pre-value) of after administration of test compound relative to before administration. Tamsulosin which is a known α1 receptor antagonist was measured similarly. A significance diffenence was tested by a Dunnett test by comparing with each value of a vehicle (DMSO)-administered group.

Hartley male guinea pigs = experiment: Effect on blood pressure in anesthetized guinea pigs; type: in vivo, guinea pig
Protocol: Hartley male guinea pigs (Slc) weighing 300 to 350 g was anesthetized with urethane (1.2 g/kg), and retained, a cervical region was incised to expose a left common carotid artery. A polyethylene tube filled with physiological saline containing heparin (10 U.I./ml) was inserted into an artery, and blood pressure was measured with a pressure transducer. A cannulae for administering test compound was inserted into a vein at an end of left hind leg, and a test compound dissolved in distilled water was administered therethrough at 0.5 mL/kg. The blood pressure was recorded at 20 Hz using an analogue data inputting apparatus (MP-100, BIOPAC Systems), and analyzed by analyzing software (AcqKnowledge 3.5.3, BIOPAC Systems). Example compound and tamsulosin were studied for a dose at which effects were recognized in the aforementioned test a (Pressure Flow Study), and an average blood pressure just before administration of test compound and an average blood pressure 15 minutes after administration were measured. Data were statistically treated by Paired t-test.

[4] = 10 minutes after administration minus before

T1 sequence (P22303 32-617 isoform P22303-2 limits assumed): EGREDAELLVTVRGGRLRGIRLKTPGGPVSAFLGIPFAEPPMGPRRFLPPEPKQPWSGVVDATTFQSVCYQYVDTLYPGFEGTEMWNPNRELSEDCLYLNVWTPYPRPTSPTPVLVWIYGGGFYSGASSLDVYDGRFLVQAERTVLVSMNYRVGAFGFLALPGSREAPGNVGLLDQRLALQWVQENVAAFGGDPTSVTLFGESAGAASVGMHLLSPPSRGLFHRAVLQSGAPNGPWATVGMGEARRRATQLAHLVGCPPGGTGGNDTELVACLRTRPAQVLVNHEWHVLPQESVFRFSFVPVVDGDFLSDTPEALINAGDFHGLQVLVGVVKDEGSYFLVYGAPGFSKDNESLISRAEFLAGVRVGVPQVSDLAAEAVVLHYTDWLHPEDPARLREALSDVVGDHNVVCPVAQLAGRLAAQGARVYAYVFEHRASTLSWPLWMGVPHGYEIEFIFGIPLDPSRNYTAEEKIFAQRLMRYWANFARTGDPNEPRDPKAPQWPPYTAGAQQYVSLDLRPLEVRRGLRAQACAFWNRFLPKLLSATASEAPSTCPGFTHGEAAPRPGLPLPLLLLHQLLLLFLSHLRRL

Compound CC(Cc1ccccc1)N1CCC(CCC(=O)c2cc3c4c(c2)CCN4C(=O)CC3)CC1.Cl (racemic) has a melting point of 211 to 213 °C.

Work on Cl.O=C(CCC1CCN(CC(O)c2ccccc2)CC1)c1cc2c3c(c1)CCN3C(=O)CC2 (racemic) yielded a melting point of 235 to 237 °C.

Cl.O=C(CCC1CCN(C2CCc3ccccc32)CC1)c1cc2c3c(c1)CCN3C(=O)CC2 (racemic) gave a melting point of 111 to 113 °C.

Compound Cl.O=C(CCC1CCN(C2CCc3ccccc3C2)CC1)c1cc2c3c(c1)CCN3C(=O)CC2 (racemic) has a melting point of 223 to 225 °C.

With Cl.O=C1CCc2cc(C(=O)[C@H]3CC[C@H](CNCCc4ccccc4)CC3)cc3c2N1CC3 (stereo in doubt) the melting point was 252 to 254 °C.

For CN(CCCCCCN(C)C(=O)Oc1ccc[n+](C)c1)C(=O)Oc1ccc[n+](C)c1 [Distigmine, distigmine, reference compound], the IC50 [1] was 723 nM.

In the case of O=C(CCC1CCN(CCc2cccc(F)c2)CC1)c1cc2c3c(c1)CCN3C(=O)CC2 [Example 84, 8-(3-[1-[2-(3-Fluorophenyl)ethyl]-4-piperidinyl]propanoyl)-1,2,5,6-tetrahydro-4H-pyrrolo[3,2,1-ij]quinolin-4-one hydrochloride], the IC50 [1] is reported as 169 nM and the IC50 [2] is reported as 236 nM.

In the case of CCOc1ccccc1OCCN[C@H](C)Cc1ccc(OC)c(S(N)(=O)=O)c1 [tamsulosin, Tamsulosin, reference compound], the “change in bladder internal pressure (ΔPves(Qmax))” value [3, 4] is reported as −3.56 ± 1.09 cmH2O, the “change in maximum urine flow rate (ΔQmax)” value [3, 4] is reported as 0.036 ± 0.014 mL/s and the “voiding efficiency (% of pre-value)” value ([3]; after administration relative to before) is reported as 118.5 ± 13.4 %. The “reduction of blood pressure” value (Hartley male guinea pigs; 0.01 mg/kg, i.v.) was “about 40%”, the “Blood pressure, after administration” value (Hartley male guinea pigs; average blood pressure 15 minutes after i.v. administration, tamsulosin 0.01 mg/kg, Example 20 0.1 mg/kg) was 32.9 ± 3.0 mmHg and the “Blood pressure, before administration” value (Hartley male guinea pigs; average blood pressure just before i.v. administration, tamsulosin 0.01 mg/kg, Example 20 0.1 mg/kg) was 54.5 ± 2.5 mmHg.

COc1ccccc1N1CCN(CCCNc2cc(=O)n(C)c(=O)n2C)CC1 [urapidil, reference compound] gave an IC50 [2] of 357 nM.
